The conditions of data set [1]: cited from earlier work.
Data set [2] in a line: Release rates of active agents from Tecophilic, Tecoflex and Carbothane polyurethane implants (Example 6). Format: physicochemical.
The nature of data set [3]: In vitro elution of histrelin from Tecophilic HP-60D-20 polyurethane implant (Example 1). Format: physicochemical. The following applies: HP-60D-20 implant. From the text:
HP-60D-20 is extruded to tubes with thickness of 0.30 mm with inside diameter of 1.75 mm. The tubes are then cut into 25 mm in length. One side of the tube is sealed with heat using a heat sealer. The sealing time is less than one minute. Four pellets of histrelin acetate are loaded into the tube. […] Each pellet is comprised of a mixture of 98% histrelin and 2% stearic acid. The second end open of the tube is sealed with heat in the same way as for the first end. The loaded implant is then conditioned and primed. The conditioning takes place at room temperature in a 0.9% saline solution for one day. Upon completion of the conditioning, the implant undergoes priming. The priming takes place at room temperatures in a 1.8% saline solution for one day. Each implant is tested in vitro in a medium selected to mimic the pH found in the human body. The temperature of the selected medium was kept at approximately 37° C. during the testing. The release rates are shown on FIG. 4 and Table 2.

Where [4] appears, read: Carbothane PC-3595A, F.M.: 4,500.

Where a name gives a salt, the structure may show the parent alone.

`Clc1cccc(Cl)c1N=C1NCCN1` [Clonidine Base]: the “Log P” value in data set [1] is “Log P = 2.56”. In addition, the non-normalized release rate came out at 400 µg/day in data set [2] (Carbothane PC-3575A, F.M.: 620); 270 µg/day in data set [2] (setting [4]); 175 µg/day in data set [2] (Tecoflex EG 100A, F.M.: 10,000); 50 µg/day in data set [2] (Tecoflex EG-65D, F.M.: 37,000); 2000 µg/day in data set [2] (Tecoflex EG-85A, F.M.: 2,300); 2000 µg/day in data set [2] (Tecophilic HP-60D-20, 15% EWC). The “release rate normalized to surface area of the implant” value (from here on “release rate normalized”) in data set [2] (Carbothane PC-3575A, F.M.: 620) worked out at 202 μg/day/cm^2; in data set [2] (setting [4]), 136 μg/day/cm^2; in data set [2] (Tecoflex EG 100A, F.M.: 10,000) it was 88 μg/day/cm^2; in data set [2] (Tecoflex EG-65D, F.M.: 37,000), 25 μg/day/cm^2; in data set [2] (Tecoflex EG-85A, F.M.: 2,300), 1053 μg/day/cm^2; in data set [2] (Tecophilic HP-60D-20, 15% EWC), 1011 μg/day/cm^2.
Consider `C#CCN(C)[C@H](C)Cc1ccccc1` [Selegiline HCL], for which the non-normalized release rate was determined as 70 µg/day in data set [2] (Carbothane PC-3575A, F.M.: 620); 30 µg/day in data set [2] (setting [4]); 14 µg/day in data set [2] (Tecoflex EG 100A, F.M.: 10,000); 8 µg/day in data set [2] (Tecoflex EG-65D, F.M.: 37,000); 3000 µg/day in data set [2] (Tecoflex EG-85A, F.M.: 2,300); 600 µg/day in data set [2] (Tecophilic HP-60D-20, 15% EWC). Moreover, the “release rate normalized” value in data set [2] (Carbothane PC-3575A, F.M.: 620) was 36 μg/day/cm^2; in data set [2] (setting [4]), 15 μg/day/cm^2; in data set [2] (Tecoflex EG 100A, F.M.: 10,000), 7.2 μg/day/cm^2; in data set [2] (Tecoflex EG-65D, F.M.: 37,000), 4.1 μg/day/cm^2; in data set [2] (Tecoflex EG-85A, F.M.: 2,300), 1518 μg/day/cm^2; in data set [2] (Tecophilic HP-60D-20, 15% EWC), 294 μg/day/cm^2.
In the case of `CCNC(=O)[C@@H]1CCCN1C(=O)[C@H](CCCNC(=N)N)NC(=O)[C@H](CC(C)C)NC(=O)[C@@H](Cc1cn(Cc2ccccc2)cn1)NC(=O)[C@H](Cc1ccc(O)cc1)NC(=O)[C@H](CO)NC(=O)[C@H](Cc1c[nH]c2ccccc12)NC(=O)[C@H](Cc1cnc[nH]1)NC(=O)[C@@H]1CCC(=O)N1` [Histrelin Acetate], the non-normalized release rate is 0.4 µg/day in data set [2] (setting [4]); 0.5 µg/day in data set [2] (Tecoflex EG 100A, F.M.: 10,000); 150 µg/day in data set [2] (Tecophilic HP-60D-20, 15% EWC); 400 µg/day in data set [2] (Tecophilic HP-60D-35, 24% EWC); 500 µg/day in data set [2] (Tecophilic HP-60D-60, 31% EWC). Besides, the “release rate normalized” value in data set [2] (setting [4]) was determined as 0.2 μg/day/cm^2; in data set [2] (Tecoflex EG 100A, F.M.: 10,000), 0.3 μg/day/cm^2; in data set [2] (Tecophilic HP-60D-20, 15% EWC), 93 μg/day/cm^2; in data set [2] (Tecophilic HP-60D-35, 24% EWC), 248 μg/day/cm^2; in data set [2] (Tecophilic HP-60D-60, 31% EWC), 309 μg/day/cm^2. For the same compound, the “Histrelin Elution Rates” value came to 451.733 µg/day in data set [3] (week 1 of elution); 582.666 µg/day in data set [3] (week 2 of elution); 395.9 µg/day in data set [3] (week 3 of elution); 310.29 µg/day in data set [3] (week 4 of elution); 264.92 µg/day in data set [3] (week 5 of elution); 247.17 µg/day in data set [3] (week 6 of elution). Also, the “Histrelin Elution Rates” value in data set [3] (week 7 of elution) was 215.93 µg/day; in data set [3] (week 8 of elution), 201.78 µg/day; in data set [3] (week 9 of elution), 183.22 µg/day; in data set [3] (week 10 of elution), 174.99 µg/day; in data set [3] (week 11 of elution) it was 167.72 µg/day; in data set [3] (week 12 of elution) it was 158.37 µg/day. The “Histrelin Elution Rates” value in data set [3] (week 13 of elution) stood at 153.95 µg/day; in data set [3] (week 14 of elution), 146.46 µg/day; in data set [3] (week 15 of elution) it was 139.83 µg/day; in data set [3] (week 16 of elution), 129.6 µg/day; in data set [3] (week 17 of elution), 124.46 µg/day; in data set [3] (week 18 of elution), 118.12 µg/day. In addition, the “Histrelin Elution Rates” value in data set [3] (week 19 of elution) was 120.35 µg/day.
As for `Cc1ccccc1N1C(=O)c2cc(S(N)(=O)=O)c(Cl)cc2NC1C` (stereo not drawn) [Metolazone], in data set [1], the “Log P” value is “Log P = 2.50”. In addition, the non-normalized release rate in data set [2] (Carbothane PC-3575A, F.M.: 620) came to 20 µg/day; in data set [2] (setting [4]), 6.1 µg/day; in data set [2] (Tecoflex EG 100A, F.M.: 10,000) it was 5.5 µg/day; in data set [2] (Tecoflex EG-85A, F.M.: 2,300) it was 77 µg/day; in data set [2] (Tecophilic HP-60D-20, 15% EWC), 124 µg/day. The “release rate normalized” value stood at 8.4 μg/day/cm^2 in data set [2] (Carbothane PC-3575A, F.M.: 620); 2.6 μg/day/cm^2 in data set [2] (setting [4]); 2.3 μg/day/cm^2 in data set [2] (Tecoflex EG 100A, F.M.: 10,000); 32 μg/day/cm^2 in data set [2] (Tecoflex EG-85A, F.M.: 2,300); 50 μg/day/cm^2 in data set [2] (Tecophilic HP-60D-20, 15% EWC).
As to `C[C@@H]1C[C@H]2[C@@H]3CCC4=CC(=O)C=C[C@]4(C)[C@@]3(F)[C@@H](O)C[C@]2(C)[C@@]1(O)C(=O)CO` [Dexamethasone], the “Log P” value in data set [1] is given as “Log P = 1.93”.
